These results are taken from paper PMC10387993, “New pyrimidine-N-β-D-glucosides: synthesis, biological evaluation, and molecular docking investigations” (Turkish Journal of Chemistry, 2023).

One data set can be described thus: in vitro. It counts as cell-based. As to conditions: human, LC50. A digest of the protocol:
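Seed ~1 × 10^4 cells/well; final 200 μL. Add MTT in phenol-red-free RPMI 1640, 4 h. Solubilise formazan in DMSO + Sorenson's buffer, 30 min RT. Read 560/690 nm. ≥3 repeats.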

A short description of data set [1]: LDH cytotoxic activity assay, C6. It counts as cell-based. As to conditions: rat, C6 glioma cells; for cytotoxicity at 24 h, 25 μg/mL: C6, 25 μg/mL; for cytotoxicity at 24 h, 50 μg/mL: C6, 50 μg/mL; for cytotoxicity at 24 h, 75 μg/mL: C6, 75 μg/mL; for cytotoxicity at 24 h, 100 μg/mL: C6, 100 μg/mL. A digest of the protocol:
(§1)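 Cells grown in DMEM or RPMI 1640 with 10% FBS were seeded at about 5 × 10^3 per well in triplicate. They were exposed to 25, 50, 75 and 100 μg/mL compound for 24 h at 37 °C, 5% CO2, and LDH release was measured by absorbance at 492–630 nm.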

Data set [2] can be described thus: LDH cytotoxic activity assay, HeLa. Type of data set: cell-based. As to conditions: human, HeLa cells. The method in brief:
as §1

The nature of data set [3]: LDH cytotoxic activity assay, HT29. As to conditions: human, HT29 cells; for cytotoxicity at 24 h, 25 μg/mL: HT29, 25 μg/mL; for cytotoxicity at 24 h, 50 μg/mL: HT29, 50 μg/mL; for cytotoxicity at 24 h, 75 μg/mL: HT29, 75 μg/mL; for cytotoxicity at 24 h, 100 μg/mL: HT29, 100 μg/mL. Type of data set: cell-based. A digest of the protocol: as §1
The test system of another data set is calf thymus DNA (CT-DNA). As to the kind of experiment: DNA binding study, UV-Visible absorption titration. Particulars: UV-Vis titration, 25 μM compound. From the text: The vast majority of anticancer agents used in pharmaceutical chemistry act on functional macromolecules such as DNA and proteins. Given this well-known fact, the relationship between newly developed anticancer drug candidates and macromolecules should be studied in detail. The interaction of molecules with DNA leads to significant changes in the helical structure of DNA, which can be observed by spectrophotometric techniques. […] Also, the red or blue shift in the absorption bands of the compounds can be an indication of the stability of the compound and the DNA structure. The DNA/BSA binding properties of the new chemicals synthesized by our group were determined using a UV-Vis spectrophotometer. The interactions of these compounds with DNA were as follows. […] Kb is the binding constant related to the complex to DNA and can be calculated algebraically from the slope of the line drawn between [DNA] / (ɛa-ɛf) and [DNA]. […]
To find the interaction of the compounds with calf thymus DNA and to calculate the binding constants (Kb) UV–Visible absorption spectroscopy technique was used. […] After dissolving the calf thymus DNA fibers in Tris–HCl buffer, the purity of this solution was checked from the absorbance ratio A260/A280. […] Absorption spectra were recorded by using 1-cm-path quartz cuvettes at room temperature. […]

Data set [4] can be described thus: LDH cytotoxic activity assay, A549. Particulars: human, A549 cells. Type of data set: cell-based. The method in brief:
as §1

Data set [5] in a line: LDH cytotoxic activity assay, Hep3B. Particulars: human, Hep3B cells. Type of data set: cell-based. The method in brief:
as §1

Data set [6] in a line: LDH cytotoxic activity assay, MCF7. Type of data set: cell-based. Particulars: human, MCF7 cells. The method in brief:
as §1

Data set [7] is described as follows: LDH cytotoxic activity assay, FL. Type of data set: cell-based. As to conditions: human, FL cells (normal cells). A digest of the protocol: as §1
Another data set addresses BSA (Bos taurus, UniProt P02769). As to the kind of experiment: BSA binding study, UV-Visible absorption. Particulars: UV-Vis, 25 μM compound, BSA 6.5–800 μM. An excerpt: The vast majority of anticancer agents used in pharmaceutical chemistry act on functional macromolecules such as DNA and proteins. Given this well-known fact, the relationship between newly developed anticancer drug candidates and macromolecules should be studied in detail. The interaction of molecules with DNA leads to significant changes in the helical structure of DNA, which can be observed by spectrophotometric techniques. […] Also, the red or blue shift in the absorption bands of the compounds can be an indication of the stability of the compound and the DNA structure. The DNA/BSA binding properties of the new chemicals synthesized by our group were determined using a UV-Vis spectrophotometer. The interactions of these compounds with DNA were as follows. In the spectra obtained by UV-Vis studies of the compounds, a single maximum absorption peak was observed and this peak had no clear bathochromic or hypsochromic effect. […]. […] The physical interactions of our newly synthesized compounds with BSA caused the formation of the spectral bands described below. […]. […]. Kb is the binding constant related to the complex to DNA and can be calculated algebraically from the slope of the line drawn between [DNA] / (ɛa-ɛf) and [DNA]. […].
To find the interaction of the compounds with calf thymus DNA and to calculate the binding constants (Kb) UV–Visible absorption spectroscopy technique was used. A 2.5-mg calf thymus DNA was dissolved in 10.0 mL Tris–HCl buffer (20 mM Tris–HCl, 20 mM NaCl, pH 7.0) and stabile during one week in the refrigerator. […]. After dissolving the calf thymus DNA fibers in Tris–HCl buffer, the purity of this solution was checked from the absorbance ratio A260/A280. […]. These compounds were diluted with Tris–HCl buffer to obtain 25 μM concentrations. Test compounds in the solutions were incubated at room temperature for nearly 30 min before the process. The UV-visible spectral studies were performed in mixed solvent system (1/9 DMSO/Tris–HCl buffer) using eight points that the fine structure is observed for these compounds in this system by UV-visible absorption. […]. Absorption spectra were recorded by using 1-cm-path quartz cuvettes at room temperature. To evaluate the interaction of the compounds with BSA, UV–Visible absorption spectroscopy technique was also used. A 2.5 mg BSA was dissolved in 10.0 mL of Tris–HCl buffer (5 mM Tris–HCl, 10 mM NaCl at pH 7.4) and stored in the refrigerator. […]

Chain of BSA (P02769 25-607): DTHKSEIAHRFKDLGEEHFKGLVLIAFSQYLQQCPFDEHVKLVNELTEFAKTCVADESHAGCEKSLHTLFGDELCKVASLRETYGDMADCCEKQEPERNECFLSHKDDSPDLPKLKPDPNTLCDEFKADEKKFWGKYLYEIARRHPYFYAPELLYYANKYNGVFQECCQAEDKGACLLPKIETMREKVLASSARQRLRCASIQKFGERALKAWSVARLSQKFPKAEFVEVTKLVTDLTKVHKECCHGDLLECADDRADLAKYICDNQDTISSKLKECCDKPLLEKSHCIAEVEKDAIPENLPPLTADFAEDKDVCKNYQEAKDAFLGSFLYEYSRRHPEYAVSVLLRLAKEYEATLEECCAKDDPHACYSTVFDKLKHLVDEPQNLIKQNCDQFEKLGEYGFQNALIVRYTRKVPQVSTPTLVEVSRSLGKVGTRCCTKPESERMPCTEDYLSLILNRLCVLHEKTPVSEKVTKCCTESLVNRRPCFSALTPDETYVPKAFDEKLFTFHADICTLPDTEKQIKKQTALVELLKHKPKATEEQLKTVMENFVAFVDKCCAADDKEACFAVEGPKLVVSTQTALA

`Cc1ccccc1-c1cc(-c2ccccn2)nc(N[C@@H]2O[C@H](CO)[C@@H](O)[C@H](O)[C@H]2O)n1` [Compound 1, N-[4-(2-methylphenyl)-6-pyridin-2-ylpyrimidin-2-yl]-β-D-glucopyranosylamine] displayed an LC50 (concentration causing 50% net cell loss) in the data set “in vitro” greater than 500 µg/mL. In data set [1], this compound showed a cytotoxicity at 24 h, 25 μg/mL of 28.7%; a cytotoxicity at 24 h, 50 μg/mL of 28.7%; a cytotoxicity at 24 h, 75 μg/mL of 72.1%; a cytotoxicity at 24 h, 100 μg/mL of 97.8%. In data set [2], the cytotoxicity at 24 h, 25 μg/mL came to 30.2%; the cytotoxicity at 24 h, 50 μg/mL came out at 47%; the cytotoxicity at 24 h, 75 μg/mL stood at 65.3%; the cytotoxicity at 24 h, 100 μg/mL was determined as 88.7%. In data set [3], this compound showed a cytotoxicity at 24 h, 25 μg/mL of 29.3%; a cytotoxicity at 24 h, 50 μg/mL of 48%; a cytotoxicity at 24 h, 75 μg/mL of 68.9%; a cytotoxicity at 24 h, 100 μg/mL of 83.7%. For the same compound, the “binding constant (Kb)” value with calf thymus DNA (CT-DNA) was “greater interest in DNA than the anticancer drugs cisplatin and 5FU”.

The compound `Cc1ccc(-c2cc(-c3ccncc3)nc(N[C@@H]3O[C@H](CO)[C@@H](O)[C@H](O)[C@H]3O)n2)cc1` [Compound 9, N-[4-(4-methylphenyl)-6-pyridin-4-ylpyrimidin-2-yl]-β-D-glucopyranosylamine] had an LC50 (concentration causing 50% net cell loss) in “in vitro” greater than 500 µg/mL. The cytotoxicity at 24 h, 25 μg/mL in data set [1] stood at 28.4%; in data set [2], 10%; in [3], 25.7%; in data set [4] (A549, 25 μg/mL), 27.4%; in data set [5] (25 μg/mL), 16.5%; in [6] (MCF7, 25 μg/mL), 11.1%. The cytotoxicity at 24 h, 25 μg/mL in data set [7] (FL, 25 μg/mL) amounted to 18.6%. Besides, the cytotoxicity at 24 h, 50 μg/mL was determined as 34.1% in data set [1]; 34.3% in [2]; 40.9% in [3]; 28.5% in [4] (A549, 50 μg/mL); 24.4% in data set [5] (50 μg/mL); 19.2% in [6] (MCF7, 50 μg/mL). The same compound came in with a cytotoxicity at 24 h, 50 μg/mL in data set [7] (FL, 50 μg/mL) of 30%. For the same compound, the cytotoxicity at 24 h, 75 μg/mL stood at 70.2% in data set [1]; 49.6% in data set [2]; 74.7% in data set [3]; 48.4% in data set [4] (A549, 75 μg/mL); 41.5% in data set [5] (75 μg/mL); 27.5% in data set [6] (MCF7, 75 μg/mL). In [7] (FL, 75 μg/mL), this compound displayed a cytotoxicity at 24 h, 75 μg/mL of 60.6%. Further, the cytotoxicity at 24 h, 100 μg/mL in data set [1] is 90.6%; in [2], 55.9%; in data set [3], 81.8%; in data set [4] (A549, 100 μg/mL), 63.2%; in data set [5] (100 μg/mL), 49.4%; in data set [7] (FL) it was 71%. In data set [7] (as the column head prints, head prints FL), this compound showed a cytotoxicity at 24 h, 100 μg/mL of 36.5%. Also, the “change of absorption on adding increasing amounts of BSA” value on BSA was “hyperchromic activity”.
